Results on four compounds are retold here after patent US20170037014A1, “FUNGICIDAL PYRAZOLES” (E. I. DU PONT DE NEMOURS AND COMPANY, priority 2014, published 2017).

Each structure is given as a SMILES string.

For series [1], the system named is Blumeria graminis f sp. tritici. As to the kind of experiment: Test D: wheat powdery mildew, preventive spray on wheat seedlings, visual disease rating. It counts as in vivo. Particulars: Blumeria graminis, 100 = 100% disease control, 0 = no control. The source says:
General protocol for preparing test suspensions for Tests A-D: the test compounds were first dissolved in acetone in an amount equal to 3% of the final volume and then suspended at the desired concentration (in ppm) in acetone and purified water (50/50 mix by volume) containing 250 ppm of the surfactant Trem® 014 (polyhydric alcohol esters). The resulting test suspensions were then used in Tests A-D. The test suspension was sprayed to the point of run-off on wheat seedlings. The following day the seedlings were inoculated with a spore dust of Blumeria graminis f sp. tritici, (also known as Erysiphe graminis f. sp. tritici, the causal agent of wheat powdery mildew) and incubated in a growth chamber at 20° C. for 8 days, after which time visual disease ratings were made. In the Table, a rating of 100 indicates 100% disease control and a rating of 0 indicates no disease control (relative to the controls). A dash (−) indicates no test results. All results are for 250 ppm except where followed by an “*” which indicates 50 ppm, and where followed by an “**” which indicates 10 ppm

The next series relates to Botrytis cinerea. As to the kind of experiment: Test C: tomato Botrytis, preventive spray on tomato seedlings, visual disease rating. The class given is in vivo. Particulars: Botrytis cinerea, 100 = 100% disease control, 0 = no control. The source says:
General protocol for preparing test suspensions for Tests A-D: the test compounds were first dissolved in acetone in an amount equal to 3% of the final volume and then suspended at the desired concentration (in ppm) in acetone and purified water (50/50 mix by volume) containing 250 ppm of the surfactant Trem® 014 (polyhydric alcohol esters). The resulting test suspensions were then used in Tests A-D. The test suspension was sprayed to the point of run-off on tomato seedlings. The following day the seedlings were inoculated with a spore suspension of Botrytis cinerea (the causal agent of tomato Botrytis) and incubated in a saturated atmosphere at 20° C. for 48 h, and then moved to a growth chamber at 24° C. for 3 days, after which time visual disease ratings were made. In the Table, a rating of 100 indicates 100% disease control and a rating of 0 indicates no disease control (relative to the controls). A dash (−) indicates no test results. All results are for 250 ppm except where followed by an “*” which indicates 50 ppm, and where followed by an “**” which indicates 10 ppm

In another series the test system is Septoria tritici. As to the kind of experiment: Test B: wheat leaf blotch, preventive spray on wheat seedlings, visual disease rating. It counts as in vivo. The note with it: Zymoseptoria tritici, 100 = 100% disease control, 0 = no control. The source says:
General protocol for preparing test suspensions for Tests A-D: the test compounds were first dissolved in acetone in an amount equal to 3% of the final volume and then suspended at the desired concentration (in ppm) in acetone and purified water (50/50 mix by volume) containing 250 ppm of the surfactant Trem® 014 (polyhydric alcohol esters). The resulting test suspensions were then used in Tests A-D. The test suspension was sprayed to the point of run-off on wheat seedlings. The following day the seedlings were inoculated with a spore suspension of Septoria tritici (the causal agent of wheat leaf blotch) and incubated in a saturated atmosphere at 24° C. for 48 h, and then moved to a growth chamber at 20° C. for 19 days, after which time visual disease ratings were made. In the Table, a rating of 100 indicates 100% disease control and a rating of 0 indicates no disease control (relative to the controls). A dash (−) indicates no test results. All results are for 250 ppm except where followed by an “*” which indicates 50 ppm, and where followed by an “**” which indicates 10 ppm

Series [2] relates to Puccinia recondita f sp. tritici. Put plainly: Test A: wheat leaf rust, preventive spray on wheat seedlings, visual disease rating. The class given is in vivo. Particulars: 100 = 100% disease control, 0 = no control. The source says: General protocol for preparing test suspensions for Tests A-D: the test compounds were first dissolved in acetone in an amount equal to 3% of the final volume and then suspended at the desired concentration (in ppm) in acetone and purified water (50/50 mix by volume) containing 250 ppm of the surfactant Trem® 014 (polyhydric alcohol esters). The resulting test suspensions were then used in Tests A-D. The test suspension was sprayed to the point of run-off on wheat seedlings. The following day the seedlings were inoculated with a spore suspension of Puccinia recondita f sp. tritici (the causal agent of wheat leaf rust) and incubated in a saturated atmosphere at 20° C. for 24 h, and then moved to a growth chamber at 20° C. for 7 days, after which time visual disease ratings were made. In the Table, a rating of 100 indicates 100% disease control and a rating of 0 indicates no disease control (relative to the controls). A dash (−) indicates no test results. All results are for 250 ppm except where followed by an “*” which indicates 50 ppm, and where followed by an “**” which indicates 10 ppm

For `Cc1nn(C)c(CC(C)C)c1C(O)c1ccc(F)cc1Cl` (stereo not drawn) [Compound 3, α-(2-chloro-4-fluorophenyl)-1,3-dimethyl-5-(2-methylpropyl)-1H-pyrazole-4-methanol], the melting point is 159 to 162 °C. For the same compound, the pest or weed control at 10 ppm in series [1] (10 ppm (**)) was found to be 71%. In the series with Botrytis cinerea (10 ppm (**)), this compound returned a pest or weed control at 10 ppm of 0%. This compound gave a pest or weed control at 10 ppm with Septoria tritici (10 ppm (**)) of 100%. The compound also came in with a pest or weed control at 10 ppm in series [2] (10 ppm (**)) of 89%.

As for `Cc1nn(C)c(CC(C)C)c1C(O)c1ccc(F)cc1F` (stereo not drawn) [Compound 14, α-(2,4-difluorophenyl)-1,3-dimethyl-5-(2-methylpropyl)-1H-pyrazole-4-methanol], the melting point was 129 to 133 °C. In series [1], this compound had a pest or weed control at 50 ppm of 98%. For the same compound, the pest or weed control at 50 ppm in the series on Botrytis cinerea was 16%. This compound had a pest or weed control at 50 ppm in the series with Septoria tritici of 99%. The compound further had a pest or weed control at 50 ppm in series [2] of 74%.

In the case of `CCC(C)c1c(C(O)c2ccc(F)cc2F)c(C)nn1C` (stereo not drawn) [Compound 10, α-(2,4-difluorophenyl)-1,3-dimethyl-5-(1-methylpropyl)-1H-pyrazole-4-methanol], the melting point lay in the range of 118 to 121 °C. In series [1] (250 ppm), this compound had a pest or weed control at 250 ppm of 100%. In the series with Botrytis cinerea (250 ppm), this compound gave a pest or weed control at 250 ppm of 99%. Also, the pest or weed control at 250 ppm in the series with Septoria tritici (250 ppm) was determined as 99%. This compound had a pest or weed control at 250 ppm in series [2] (250 ppm) of 100%.

Take `CCC(C)c1c(C(O)c2c(F)cc(F)cc2F)c(C)nn1C` (stereo not drawn) [Compound 23, 1,3-dimethyl-5-(1-methylpropyl)-α-(2,4,6-trifluorophenyl)-1H-pyrazole-4-methanol]: the melting point lay within 114 to 117 °C. In series [1], this compound displayed a pest or weed control at 50 ppm of 96%. This compound returned a pest or weed control at 50 ppm with Botrytis cinerea of 31%. In addition, the pest or weed control at 50 ppm in the series on Septoria tritici is 94%. The compound also had a pest or weed control at 50 ppm in series [2] of 97%.
